Measured values from US11643388B2, “Inhibitors of alpha 2 beta 1 integrin and methods of use thereof” (The Regents of the University of California, priority 2020, dated 2023).

The compounds below were run against α2β1 (Homo sapiens, UniProt P05556+P17301) (assay: α2β1 cell adhesion).
α2β1, sequence (P17301 30-1181): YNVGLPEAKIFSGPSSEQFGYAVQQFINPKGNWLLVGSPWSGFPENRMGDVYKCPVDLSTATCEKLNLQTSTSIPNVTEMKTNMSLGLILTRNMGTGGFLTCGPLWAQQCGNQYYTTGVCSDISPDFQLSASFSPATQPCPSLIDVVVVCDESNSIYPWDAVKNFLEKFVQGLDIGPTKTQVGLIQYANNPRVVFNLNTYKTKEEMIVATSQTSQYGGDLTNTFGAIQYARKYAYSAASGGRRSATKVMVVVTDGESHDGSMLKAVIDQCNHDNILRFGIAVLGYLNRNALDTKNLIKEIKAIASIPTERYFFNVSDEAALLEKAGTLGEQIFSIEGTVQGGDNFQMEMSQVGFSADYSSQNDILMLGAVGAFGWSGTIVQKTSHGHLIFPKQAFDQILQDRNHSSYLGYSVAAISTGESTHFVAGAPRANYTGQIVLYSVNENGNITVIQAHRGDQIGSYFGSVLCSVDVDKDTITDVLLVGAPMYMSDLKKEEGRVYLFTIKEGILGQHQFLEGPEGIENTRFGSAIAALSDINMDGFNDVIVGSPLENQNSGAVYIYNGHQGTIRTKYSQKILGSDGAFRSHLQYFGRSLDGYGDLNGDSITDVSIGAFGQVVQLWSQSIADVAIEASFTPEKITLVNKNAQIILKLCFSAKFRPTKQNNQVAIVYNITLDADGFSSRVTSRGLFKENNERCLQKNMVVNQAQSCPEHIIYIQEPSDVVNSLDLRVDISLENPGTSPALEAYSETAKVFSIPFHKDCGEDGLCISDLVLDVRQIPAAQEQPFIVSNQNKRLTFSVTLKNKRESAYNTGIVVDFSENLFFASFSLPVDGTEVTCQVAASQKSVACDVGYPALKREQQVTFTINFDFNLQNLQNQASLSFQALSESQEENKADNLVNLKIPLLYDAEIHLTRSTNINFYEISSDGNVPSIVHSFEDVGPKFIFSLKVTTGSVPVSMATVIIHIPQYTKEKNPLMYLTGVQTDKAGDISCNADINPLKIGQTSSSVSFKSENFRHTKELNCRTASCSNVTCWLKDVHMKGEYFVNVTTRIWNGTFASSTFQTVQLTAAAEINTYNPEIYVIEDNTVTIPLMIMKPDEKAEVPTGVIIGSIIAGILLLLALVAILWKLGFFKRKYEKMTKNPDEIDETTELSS
α2β1, sequence (P05556 21-798): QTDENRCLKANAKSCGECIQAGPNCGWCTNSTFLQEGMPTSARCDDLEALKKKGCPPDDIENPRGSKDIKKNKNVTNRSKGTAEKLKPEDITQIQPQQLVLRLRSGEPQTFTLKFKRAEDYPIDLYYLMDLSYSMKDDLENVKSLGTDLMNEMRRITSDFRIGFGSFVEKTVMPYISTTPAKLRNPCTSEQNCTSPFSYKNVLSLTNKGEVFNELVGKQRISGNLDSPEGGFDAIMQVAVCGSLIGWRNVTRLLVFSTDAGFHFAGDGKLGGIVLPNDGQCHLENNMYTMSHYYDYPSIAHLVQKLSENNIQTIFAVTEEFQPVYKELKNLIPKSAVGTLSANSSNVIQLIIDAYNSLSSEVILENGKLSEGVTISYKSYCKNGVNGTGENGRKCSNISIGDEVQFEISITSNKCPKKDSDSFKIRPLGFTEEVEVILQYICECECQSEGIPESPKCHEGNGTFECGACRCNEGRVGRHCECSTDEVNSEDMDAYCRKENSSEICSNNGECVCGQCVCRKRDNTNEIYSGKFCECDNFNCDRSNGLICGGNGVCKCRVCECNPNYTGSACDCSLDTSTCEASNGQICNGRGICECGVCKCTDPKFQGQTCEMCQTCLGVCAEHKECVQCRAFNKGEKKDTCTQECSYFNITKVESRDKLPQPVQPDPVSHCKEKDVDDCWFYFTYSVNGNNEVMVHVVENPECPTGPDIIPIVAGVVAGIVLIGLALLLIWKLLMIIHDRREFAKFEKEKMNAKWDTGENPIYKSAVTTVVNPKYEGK
Format: cell-based
`CC(C)c1cccc(Nc2ccc(Cl)c(C(=O)N[C@@H](CNC(=O)N[C@@H]3CCc4ccccc43)C(=O)O)c2Cl)c1` [SU15210-0078-01, (S)-2-(2,6-dichloro-3-(3-isopropylphenylamino)benzamido)-3-(3-((R)-2,3-dihydro-1H-inden-1-yl)ureido)propanoic Acid] was tested, and the IC50 was 500 to 1000 nM.
`Nc1ccc(Cl)c(C(=O)N[C@@H](CNC(=O)N[C@@H]2CCc3ccccc32)C(=O)O)c1Cl` [SU15210-0084-01, (S)-2-(3-amino-2,6-dichlorobenzamido)-3-(3-((R)-2,3-dihydro-1H-inden-1-yl)ureido)propanoic Acid] showed an IC50 of 500 to 1000 nM.
Work on `O=C(NC[C@H](NC(=O)c1c(Cl)ccc(NCCc2ccccc2)c1Cl)C(=O)O)N[C@@H]1CCc2ccccc21` [SU15210-0097-01, (S)-2-(2,6-dichloro-3-(phenethylamino)benzamido)-3-(3-((R)-2,3-dihydro-1H-inden-1-yl)ureido)propanoic Acid] yielded an IC50 of 1000 to 5000 nM.
With `CC(C)CCNc1ccc(Cl)c(C(=O)N[C@@H](CNC(=O)N[C@@H]2CCc3ccccc32)C(=O)O)c1Cl` [SU15210-0125-01, (S)-2-(2,6-dichloro-3-(isopentylamino)benzamido)-3-(3-((R)-2,3-dihydro-1H-inden-1-yl)ureido)propanoic Acid] the IC50 was 1000 to 5000 nM.
`O=C(NC[C@H](NC(=O)c1c(Cl)ccc(NC2CCc3ccccc3C2)c1Cl)C(=O)O)N[C@@H]1CCc2ccccc21` (stereo partly drawn) [SU15210-0126-01, (2S)-2-(2,6-dichloro-3-(1,2,3,4-tetrahydronaphthalen-2-ylamino)benzamido)-3-(3-((R)-2,3-dihydro-1H-inden-1-yl)ureido)propanoic Acid] was tested, and the IC50 was 1000 to 5000 nM.
Compound `O=C(NC[C@H](NC(=O)c1c(Cl)cc(-c2ccccc2)cc1Cl)C(=O)O)N[C@@H]1CCc2ccccc21` [SU15210-0140-01] has an IC50 of over 5000 nM.
`Cc1ccc(CC(=O)Nc2ccc(Cl)c(C(=O)N[C@@H](CNC(=O)N[C@@H]3CCc4ccccc43)C(=O)O)c2Cl)cc1Cl` [SU15210-0154-01, (S)-2-(2,6-dichloro-3-(2-(3-chloro-4-methylphenyl)acetamido)benzamido)-3-(3-((R)-2,3-dihydro-1H-inden-1-yl)ureido)propanoic Acid] was tested, and the IC50 was 1000 to 5000 nM.
`O=C(Cc1ccc(F)c(Cl)c1)Nc1ccc(Cl)c(C(=O)N[C@@H](CNC(=O)N[C@@H]2CCc3ccccc32)C(=O)O)c1Cl` [SU15210-0155-01, (S)-2-(2,6-dichloro-3-(2-(3-chloro-4-fluorophenyl)acetamido)benzamido)-3-(3-((R)-2,3-dihydro-1H-inden-1-yl)ureido)propanoic Acid] was tested, and the IC50 was 500 to 1000 nM.
`Cc1cccc(CC(=O)Nc2ccc(Cl)c(C(=O)N[C@@H](CNC(=O)N[C@@H]3CCc4ccccc43)C(=O)O)c2Cl)c1` [SU15210-0156-01, (S)-2-(2,6-dichloro-3-(2-m-tolylacetamido)benzamido)-3-(3-((R)-2,3-dihydro-1H-inden-1-yl)ureido)propanoic Acid] gave an IC50 of 500 to 1000 nM.
In the case of `O=C(Cc1cccc(Cl)c1)Nc1ccc(Cl)c(C(=O)N[C@@H](CNC(=O)NCc2ccccc2O)C(=O)O)c1Cl` [SU15210-0159-01, (S)-2-(2,6-dichloro-3-(2-(3-chlorophenyl)acetamido)benzamido)-3-(3-(2-hydroxybenzyl)ureido)propanoic Acid], the IC50 is reported as under 500 nM.
`O=C(NC[C@H](NC(=O)c1c(Cl)ccc(N2CC(c3ccc(Cl)cc3)C2)c1Cl)C(=O)O)N[C@@H]1CCc2ccccc21` [SU15210-0163-01, (S)-2-(2,6-dichloro-3-(3-(4-chlorophenyl)azetidin-1-yl)benzamido)-3-(3-((R)-2,3-dihydro-1H-inden-1-yl)ureido)propanoic Acid] was tested, and the IC50 was 1000 to 5000 nM.
Work on `O=C(NC[C@H](NC(=O)c1c(Cl)cc2c(c1Cl)CCNC2)C(=O)O)N[C@@H]1CCc2ccccc21` [SU15210-0171-01] yielded an IC50 of over 5000 nM.
Work on `CC(=O)N1CCc2c(cc(Cl)c(C(=O)N[C@@H](CNC(=O)N[C@@H]3CCc4ccccc43)C(=O)O)c2Cl)C1` [SU15210-0174-01] yielded an IC50 of 1000 to 5000 nM.
Compound `CC1(C)CCC(NC(=O)NC[C@H](NC(=O)c2c(Cl)cc(C(=O)NCc3cccc(O)c3)cc2Cl)C(=O)O)c2ccccc21` (stereo partly drawn) [SU15210-0187-01, (2S)-2-(2,6-dichloro-4-(3-hydroxybenzylcarbamoyl)benzamido)-3-(3-(4,4-dimethyl-1,2,3,4-tetrahydronaphthalen-1-yl)ureido)propanoic Acid] has an IC50 of under 500 nM.
With `O=C(NC[C@H](NC(=O)c1c(Cl)cc(OCCc2ccccc2)cc1Cl)C(=O)O)N[C@@H]1CCc2ccccc21` [SU15210-0188-01, (S)-2-(2,6-dichloro-4-phenethoxybenzamido)-3-(3-((R)-2,3-dihydro-1H-inden-1-yl)ureido)propanoic Acid] the IC50 was 1000 to 5000 nM.
For `O=C(NC[C@H](NC(=O)c1c(Cl)cc(COCc2ccccc2)cc1Cl)C(=O)O)N[C@@H]1CCc2ccccc21` [SU15210-0189-01, (S)-2-(4-(benzyloxymethyl)-2,6-dichlorobenzamido)-3-(3-((R)-2,3-dihydro-1H-inden-1-yl)ureido)propanoic Acid], the IC50 was 500 to 1000 nM.
Compound `O=C(NC[C@H](NC(=O)c1c(Cl)cc(N2CC(c3ccccc3)C2)cc1Cl)C(=O)O)N[C@@H]1CCc2ccccc21` [SU15210-0190-01] has an IC50 of over 5000 nM.
In the case of `O=C(NC[C@H](NC(=O)c1c(Cl)cc(-n2cnc(-c3ccccc3)c2)cc1Cl)C(=O)O)N[C@@H]1CCc2ccccc21` [SU15210-0192-01, (S)-2-(2,6-dichloro-4-(4-phenyl-1H-imidazol-1-yl)benzamido)-3-(3-((R)-2,3-dihydro-1H-inden-1-yl)ureido)propanoic Acid], the IC50 is reported as 1000 to 5000 nM.
For `O=C(NC[C@H](NC(=O)c1c(Cl)cc2c(c1Cl)CCN(C(=O)c1ccc(Cl)cc1)C2)C(=O)O)N[C@@H]1CCc2ccccc21` [SU15210-0208-01, (S)-2-(5,7-dichloro-2-(4-chlorobenzoyl)-1,2,3,4-tetrahydroisoquinoline-6-carboxamido)-3-(3-((R)-2,3-dihydro-1H-inden-1-yl)ureido)propanoic Acid], the IC50 was under 500 nM.
`O=C(NC[C@H](NC(=O)c1c(Cl)cc2c(c1Cl)CCN(C(=O)c1cccc(Cl)c1)C2)C(=O)O)N[C@@H]1CCc2ccccc21` [SU15210-0209-01, (S)-2-(5,7-dichloro-2-(3-chlorobenzoyl)-1,2,3,4-tetrahydroisoquinoline-6-carboxamido)-3-(3-((R)-2,3-dihydro-1H-inden-1-yl)ureido)propanoic Acid] was tested, and the IC50 was under 500 nM.
Work on `O=C(NC[C@H](NC(=O)c1c(Cl)cc2c(c1Cl)CCN(Cc1ccc(F)cc1)C2)C(=O)O)N[C@@H]1CCc2ccccc21` [SU15210-0210-01, (S)-2-(5,7-dichloro-2-(4-fluorobenzyl)-1,2,3,4-tetrahydroisoquinoline-6-carboxamido)-3-(3-((R)-2,3-dihydro-1H-inden-1-yl)ureido)propanoic Acid] yielded an IC50 of 1000 to 5000 nM.
In the case of `O=C(NC[C@H](NC(=O)c1c(Cl)cc2c(c1Cl)CCN(Cc1ccccc1)C2=O)C(=O)O)N[C@@H]1CCc2ccccc21` [SU15210-0211-01, (S)-2-(2-benzyl-5,7-dichloro-1-oxo-1,2,3,4-tetrahydroisoquinoline-6-carboxamido)-3-(3-((R)-2,3-dihydro-1H-inden-1-yl)ureido)propanoic Acid], the IC50 is reported as under 500 nM.
Compound `O=C(NC[C@H](NC(=O)c1c(Cl)cc2c(c1Cl)CCN(S(=O)(=O)c1ccccc1)C2)C(=O)O)N[C@@H]1CCc2ccccc21` [SU15210-0214-01, (S)-2-(5,7-dichloro-2-(phenylsulfonyl)-1,2,3,4-tetrahydroisoquinoline-6-carboxamido)-3-(3-((R)-2,3-dihydro-1H-inden-1-yl)ureido)propanoic Acid] has an IC50 of 1000 to 5000 nM.
`CN(Cc1ccccc1)C(=O)NC[C@H](NC(=O)c1c(Cl)cc(C(=O)NCc2cccc(Cl)c2)cc1Cl)C(=O)O` [SU15210-0223-01, (S)-3-(3-benzyl-3-methylureido)-2-(2,6-dichloro-4-(3-chlorobenzylcarbamoyl)benzamido)propanoic Acid] was tested, and the IC50 was under 500 nM.
`C[C@H](NC(=O)c1cc(Cl)c(C(=O)N[C@@H](CNC(=O)N[C@@H]2CCc3ccccc32)C(=O)O)c(Cl)c1)c1ccccc1` [SU15210-0224-01, (S)-2-(2,6-dichloro-4-((S)-1-phenylethylcarbamoyl)benzamido)-3-(3-((R)-2,3-dihydro-1H-inden-1-yl)ureido)propanoic Acid] was tested, and the IC50 was 1000 to 5000 nM.
`C[C@@H](NC(=O)c1cc(Cl)c(C(=O)N[C@@H](CNC(=O)N[C@@H]2CCc3ccccc32)C(=O)O)c(Cl)c1)c1ccccc1` [SU15210-0225-01, (S)-2-(2,6-dichloro-4-((R)-1-phenylethylcarbamoyl)benzamido)-3-(3-((R)-2,3-dihydro-1H-inden-1-yl)ureido)propanoic Acid] gave an IC50 of under 500 nM.
Compound `CN(Cc1cccc(Cl)c1)C(=O)c1cc(Cl)c(C(=O)N[C@@H](CNC(=O)N[C@@H]2CCc3ccccc32)C(=O)O)c(Cl)c1` [SU15210-0226-01, (S)-2-(2,6-dichloro-4-((3-chlorobenzyl)(methyl)carbamoyl)benzamido)-3-(3-((R)-2,3-dihydro-1H-inden-1-yl)ureido)propanoic Acid] has an IC50 of 500 to 1000 nM.
Compound `O=C(NC[C@H](NC(=O)c1c(Cl)cc(C(=O)N2CCc3ccccc3C2)cc1Cl)C(=O)O)N[C@@H]1CCc2ccccc21` [SU15210-0227-01, (S)-2-(2,6-dichloro-4-(1,2,3,4-tetrahydroisoquinoline-2-carbonyl)benzamido)-3-(3-((R)-2,3-dihydro-1H-inden-1-yl)ureido)propanoic Acid] has an IC50 of 500 to 1000 nM.
With `O=C(NC[C@H](NC(=O)c1c(Cl)cc(C(=O)N2Cc3ccccc3C2)cc1Cl)C(=O)O)N[C@@H]1CCc2ccccc21` [SU15210-0228-01, (S)-2-(2,6-dichloro-4-(isoindoline-2-carbonyl)benzamido)-3-(3-((R)-2,3-dihydro-1H-inden-1-yl)ureido)propanoic Acid] the IC50 was 1000 to 5000 nM.
`O=C(NC[C@H](NC(=O)c1c(Cl)cc(C(=O)N2CC(c3ccccc3)C2)cc1Cl)C(=O)O)N[C@@H]1CCc2ccccc21` [SU15210-0234-01] was tested, and the IC50 was under 500 nM.
In the case of `O=C(Cc1cccc(Cl)c1)Nc1cc(Cl)c(C(=O)N[C@@H](CNC(=O)N[C@@H]2CCc3ccccc32)C(=O)O)c(Cl)c1` [SU15210-0235-01, (S)-2-(2,6-dichloro-4-(2-(3-chlorophenyl)acetamido)benzamido)-3-(3-((R)-2,3-dihydro-1H-inden-1-yl)ureido)propanoic Acid], the IC50 is reported as under 500 nM.
